Values belong to the compound of their own block, whether it stands above or below them. Positions of bridges follow the written chain, without caps; N, C: chain ends. Non-standard residues stand in square brackets, D forms with d. Residues, ends and D or L forms follow the SMILES beside them. ξ: configuration not given here. Cit = NC(=O)NCCC[C@H](N)C(=O)O; Gly(cPr) = N[C@H](C(=O)O)C1CC1; Ile(3ξ) = CCC(C)[C@H](N)C(=O)O; Ahp(2) = CCCCC[C@H](N)C(=O)O; NMeNle = CCCC[C@H](NC)C(=O)O; Tle = CC(C)(C)[C@H](N)C(=O)O; NHexGly = CCCCCCNCC(=O)O; Nle = CCCC[C@H](N)C(=O)O; Orn = NCCC[C@H](N)C(=O)O
Target: T1, mouse VISTA (mVISTA) (Mus musculus, UniProt Q9D659)
T1 construct: expressed in transfected cells; host or cells: Human embryonic kidney 293T cells
T1 sequence (Q9D659 33-308): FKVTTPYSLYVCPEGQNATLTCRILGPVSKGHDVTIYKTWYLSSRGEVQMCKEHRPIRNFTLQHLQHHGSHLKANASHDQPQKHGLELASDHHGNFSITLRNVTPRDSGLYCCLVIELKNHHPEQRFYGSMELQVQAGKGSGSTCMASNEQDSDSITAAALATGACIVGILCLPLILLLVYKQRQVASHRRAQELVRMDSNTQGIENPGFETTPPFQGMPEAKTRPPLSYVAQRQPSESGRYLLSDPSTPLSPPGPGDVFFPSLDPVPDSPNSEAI
Assay: Cell-Based Binding High-Content Assay For mVISTA (HC CBA mVISTA)
Settings: read-out: HC CBA mVISTA IC50
Procedure, shortened: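 This high-content binding assay uses HEK293T cells expressing murine VISTA, measuring displacement of 2 nM biotinylated peptide by fluorescent streptavidin imaging. IC50 values come from four-parameter logistic fitting.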

SMILES: CCCCCCN1CC(=O)N[C@@H](Cc2ccc(O)cc2)C(=O)N[C@@H](CCCC)C(=O)N[C@@H](CC(=O)O)C(=O)N[C@@H](CCCNC(=N)N)C(=O)N(C)[C@@H](CCCC)C(=O)N[C@@H](CCCCC)C(=O)N2CCC[C@H]2C(=O)N[C@@H](C(C)(C)C)C(=O)N[C@@H](CO)C(=O)N[C@H](C(=O)N[C@@H](CC(=O)O)C(N)=O)CSCC(=O)N[C@@H](Cc2ccccc2)C(=O)N[C@@H](Cc2c[nH]c3ccccc23)C(=O)N[C@@H](CC(=O)O)C1=O [Example 1375] ({CH2CO}-FWD[NHexGly]Y[Nle]DR[NMeNle][Ahp(2)]P[Tle]SCD-NH2; thioether N-14)
- IC50: 42.5 nM

SMILES: CCCCCCN1CC(=O)N[C@@H](Cc2ccc(O)cc2)C(=O)N[C@@H](CCCC)C(=O)N[C@@H](CC(=O)O)C(=O)N[C@@H](CCCN)C(=O)N(C)[C@@H](CCCC)C(=O)N[C@@H](CCCCC)C(=O)N2CCC[C@H]2C(=O)N[C@@H](C(C)(C)C)C(=O)N[C@@H](CO)C(=O)N[C@H](C(=O)N[C@@H](CC(=O)O)C(N)=O)CSCC(=O)N[C@@H](Cc2ccccc2)C(=O)N[C@@H](Cc2c[nH]c3ccccc23)C(=O)N[C@@H](CC(=O)O)C1=O [Example 1376] ({CH2CO}-FWD[NHexGly]Y[Nle]D[Orn][NMeNle][Ahp(2)]P[Tle]SCD-NH2; thioether N-14)
- IC50: 36.6 nM

SMILES: CCCCCCN1CC(=O)N[C@@H](Cc2ccc(O)cc2)C(=O)N[C@@H](CCCC)C(=O)N[C@@H](CC(=O)O)C(=O)N[C@@H](CCCNC(=N)N)C(=O)N(C)[C@@H](CCCC)C(=O)N[C@@H](CCCCC)C(=O)N2CCC[C@H]2C(=O)N[C@@H](C(C)(C)C)C(=O)N[C@@H](CC(=O)O)C(=O)N[C@H](C(=O)N[C@@H](CC(=O)O)C(N)=O)CSCC(=O)N[C@@H](Cc2ccccc2)C(=O)N[C@@H](Cc2c[nH]c3ccccc23)C(=O)N[C@@H](CC(=O)O)C1=O [Example 1377] ({CH2CO}-FWD[NHexGly]Y[Nle]DR[NMeNle][Ahp(2)]P[Tle]DCD-NH2; thioether N-14)
- IC50: 22.2 nM

SMILES: CCCCCCN1CC(=O)N[C@@H](Cc2ccc(O)cc2)C(=O)N[C@@H](CCCC)C(=O)N[C@@H](CC(N)=O)C(=O)N[C@@H](CCCNC(=N)N)C(=O)N(C)[C@@H](CCCC)C(=O)N[C@@H](CCCCC)C(=O)N2CCC[C@H]2C(=O)N[C@@H](C(C)(C)C)C(=O)N[C@@H](CO)C(=O)N[C@H](C(=O)N[C@@H](CC(=O)O)C(N)=O)CSCC(=O)N[C@@H](Cc2ccccc2)C(=O)N[C@@H](Cc2c[nH]c3ccccc23)C(=O)N[C@@H](CC(=O)O)C1=O [Example 1378] ({CH2CO}-FWD[NHexGly]Y[Nle]NR[NMeNle][Ahp(2)]P[Tle]SCD-NH2; thioether N-14)
- IC50: 41.3 nM

SMILES: CCCCCCN1CC(=O)N[C@@H](Cc2ccc(O)cc2)C(=O)N[C@@H](CCCC)C(=O)N[C@@H](CC(N)=O)C(=O)N[C@@H](CCCNC(=N)N)C(=O)N(C)[C@@H](CCCC)C(=O)N[C@@H](CCCCC)C(=O)N2CCC[C@H]2C(=O)N[C@@H](C(C)C)C(=O)N[C@@H](CCCNC(=N)N)C(=O)N[C@H](C(=O)NCC(=O)O)CSCC(=O)N[C@@H](Cc2ccccc2)C(=O)N[C@@H](Cc2c[nH]c3ccccc23)C(=O)N[C@@H](CC(=O)O)C1=O [Example 1380] ({CH2CO}-FWD[NHexGly]Y[Nle]NR[NMeNle][Ahp(2)]PVRCG-OH; thioether N-14)
- IC50: 12.1 nM

SMILES: CCCCCCN1CC(=O)N[C@@H](Cc2ccc(O)cc2)C(=O)N[C@@H](CCCC)C(=O)N[C@@H](CC(N)=O)C(=O)N[C@@H](CCCNC(=N)N)C(=O)N(C)[C@@H](CCCC)C(=O)N[C@@H](CCCCC)C(=O)N2CCC[C@H]2C(=O)N[C@@H](C(C)C)C(=O)N[C@@H](C(C)C)C(=O)N[C@H](C(=O)NCC(=O)O)CSCC(=O)N[C@@H](Cc2ccccc2)C(=O)N[C@@H](Cc2c[nH]c3ccccc23)C(=O)N[C@@H](CC(=O)O)C1=O [Example 1383] ({CH2CO}-FWD[NHexGly]Y[Nle]NR[NMeNle][Ahp(2)]PVVCG-OH; thioether N-14)
- IC50: 16.9 nM

SMILES: CCCCCCN1CC(=O)N[C@@H](Cc2ccc(O)cc2)C(=O)N[C@@H](CCCCC)C(=O)N[C@@H](CC(N)=O)C(=O)N[C@@H](CCCNC(=N)N)C(=O)N(C)[C@@H](CCCC)C(=O)N[C@@H](CCCCC)C(=O)N2CCC[C@H]2C(=O)N[C@@H](C(C)C)C(=O)N[C@@H](C(C)C)C(=O)N[C@H](C(=O)NCC(=O)O)CSCC(=O)N[C@@H](Cc2ccccc2)C(=O)N[C@@H](Cc2c[nH]c3ccccc23)C(=O)N[C@@H](CC(=O)O)C1=O [Example 1385] ({CH2CO}-FWD[NHexGly]Y[Ahp(2)]NR[NMeNle][Ahp(2)]PVVCG-OH; thioether N-14)
- IC50: 10.5 nM

SMILES: CCCCCCN1CC(=O)N[C@@H](Cc2ccc(O)cc2)C(=O)N[C@@H](CCCC)C(=O)N[C@@H](CC(N)=O)C(=O)N[C@@H](CCCNC(N)=O)C(=O)N(C)[C@@H](CCCC)C(=O)N[C@@H](CCCCC)C(=O)N2CCC[C@H]2C(=O)N[C@@H](C(C)CC)C(=O)N[C@@H](CO)C(=O)N[C@H](C(=O)NCC(N)=O)CSCC(=O)N[C@@H](Cc2ccccc2)C(=O)N[C@@H](Cc2c[nH]c3ccccc23)C(=O)N[C@@H](CC(=O)O)C1=O (stereo partly drawn) [Example 1388] ({CH2CO}-FWD[NHexGly]Y[Nle]N[Cit][NMeNle][Ahp(2)]P[Ile(3ξ)]SCG-NH2; thioether N-14)
- IC50: 16.4 nM

SMILES: CCCCCCN1CC(=O)N[C@@H](Cc2ccc(O)cc2)C(=O)N[C@@H](CCCC)C(=O)N[C@@H](CC(N)=O)C(=O)N[C@@H](CCCNC(=N)N)C(=O)N(C)[C@@H](CCCC)C(=O)N[C@@H](CCCCC)C(=O)N2CCC[C@H]2C(=O)N[C@@H](C2CC2)C(=O)N[C@@H](CO)C(=O)N[C@H](C(=O)NCC(N)=O)CSCC(=O)N[C@@H](Cc2ccccc2)C(=O)N[C@@H](Cc2c[nH]c3ccccc23)C(=O)N[C@@H](CC(=O)O)C1=O [Example 1389] ({CH2CO}-FWD[NHexGly]Y[Nle]NR[NMeNle][Ahp(2)]P[Gly(cPr)]SCG-NH2; thioether N-14)
- IC50: 34.4 nM

Results, then the compound that gave them:

- IC50: 5.9 nM
SMILES: CCCCCCN1CC(=O)N[C@@H](Cc2ccc(O)cc2)C(=O)N[C@@H](CCCC)C(=O)N[C@@H](CC(N)=O)C(=O)N[C@@H](CCCNC(=N)N)C(=O)N(C)[C@@H](CCCC)C(=O)N[C@@H](CCCCC)C(=O)N2CCC[C@H]2C(=O)N[C@@H](C(C)C)C(=O)N[C@@H](CC(=O)O)C(=O)N[C@H](C(=O)NCC(=O)O)CSCC(=O)N[C@@H](Cc2ccccc2)C(=O)N[C@@H](Cc2c[nH]c3ccccc23)C(=O)N[C@@H](CC(=O)O)C1=O [Example 1379] ({CH2CO}-FWD[NHexGly]Y[Nle]NR[NMeNle][Ahp(2)]PVDCG-OH; thioether N-14)

- IC50: 20.3 nM
SMILES: CCCCCCN1CC(=O)N[C@@H](Cc2ccc(O)cc2)C(=O)N[C@@H](CCCC)C(=O)N[C@@H](CC(N)=O)C(=O)N[C@@H](CCCNC(=N)N)C(=O)N(C)[C@@H](CCCC)C(=O)N[C@@H](CCCCC)C(=O)N2CCC[C@H]2C(=O)N[C@@H](C(C)C)C(=O)N[C@@H](CC(N)=O)C(=O)N[C@H](C(=O)NCC(=O)O)CSCC(=O)N[C@@H](Cc2ccccc2)C(=O)N[C@@H](Cc2c[nH]c3ccccc23)C(=O)N[C@@H](CC(=O)O)C1=O [Example 1381] ({CH2CO}-FWD[NHexGly]Y[Nle]NR[NMeNle][Ahp(2)]PVNCG-OH; thioether N-14)

- IC50: 17.2 nM
SMILES: CCCCCCN1CC(=O)N[C@@H](Cc2ccc(O)cc2)C(=O)N[C@@H](CCCC)C(=O)N[C@@H](CC(N)=O)C(=O)N[C@@H](CCCNC(=N)N)C(=O)N(C)[C@@H](CCCC)C(=O)N[C@@H](CCCCC)C(=O)N2CCC[C@H]2C(=O)N[C@@H](C(C)C)C(=O)N[C@@H](CO)C(=O)N[C@H](C(=O)NCC(=O)O)CSCC(=O)N[C@@H](Cc2ccccc2)C(=O)N[C@@H](Cc2c[nH]c3ccccc23)C(=O)N[C@@H](CC(=O)O)C1=O [Example 1382] ({CH2CO}-FWD[NHexGly]Y[Nle]NR[NMeNle][Ahp(2)]PVSCG-OH; thioether N-14)

- IC50: 10.9 nM
SMILES: CCCCCCN1CC(=O)N[C@@H](Cc2ccc(O)cc2)C(=O)N[C@@H](CCCCC)C(=O)N[C@@H](CC(N)=O)C(=O)N[C@@H](CCCNC(=N)N)C(=O)N(C)[C@@H](CCCC)C(=O)N[C@@H](CCCCC)C(=O)N2CCC[C@H]2C(=O)N[C@@H](C(C)C)C(=O)N[C@@H](CO)C(=O)N[C@H](C(=O)NCC(=O)O)CSCC(=O)N[C@@H](Cc2ccccc2)C(=O)N[C@@H](Cc2c[nH]c3ccccc23)C(=O)N[C@@H](CC(=O)O)C1=O [Example 1384] ({CH2CO}-FWD[NHexGly]Y[Ahp(2)]NR[NMeNle][Ahp(2)]PVSCG-OH; thioether N-14)

- IC50: 8.8 nM
SMILES: CCCCCCN1CC(=O)N[C@@H](Cc2ccc(O)cc2)C(=O)N[C@@H](CCCCC)C(=O)N[C@@H](CC(N)=O)C(=O)N[C@@H](CCCNC(=N)N)C(=O)N(C)[C@@H](CCCC)C(=O)N[C@@H](CCCCC)C(=O)N2CCC[C@H]2C(=O)N[C@@H](C(C)C)C(=O)N[C@@H](CC(=O)O)C(=O)N[C@H](C(=O)NCC(=O)O)CSCC(=O)N[C@@H](Cc2ccccc2)C(=O)N[C@@H](Cc2c[nH]c3ccccc23)C(=O)N[C@@H](CC(=O)O)C1=O [Example 1386] ({CH2CO}-FWD[NHexGly]Y[Ahp(2)]NR[NMeNle][Ahp(2)]PVDCG-OH; thioether N-14)

- IC50: 5.3 nM
SMILES: CCCCCCN1CC(=O)N[C@@H](Cc2ccc(O)cc2)C(=O)N[C@@H](CCCC)C(=O)N[C@@H](CC(N)=O)C(=O)N[C@@H](CCCNC(N)=O)C(=O)N(C)[C@@H](CCCC)C(=O)N[C@@H](CCCCC)C(=O)N2CCC[C@H]2C(=O)N[C@@H](C(C)C)C(=O)N[C@@H](CC(=O)O)C(=O)N[C@H](C(=O)NCC(=O)O)CSCC(=O)N[C@@H](Cc2ccccc2)C(=O)N[C@@H](Cc2c[nH]c3ccccc23)C(=O)N[C@@H](CC(=O)O)C1=O [Example 1387] ({CH2CO}-FWD[NHexGly]Y[Nle]N[Cit][NMeNle][Ahp(2)]PVDCG-OH; thioether N-14)

From patent US20240218022A1, “ANTI-VISTA MACROCYCLIC PEPTIDES AND COMPOSITIONS” (BRISTOL-MYERS SQUIBB COMPANY, priority 2022, published 2024)
